# How the values were obtained:
# HeLa = assay: Cytotoxicity against human HeLa cells at 72 hrs by MTS assay; format: functional, cell-based
# MCF7 = assay: Cytotoxicity against human MCF7 cells at 72 hrs by MTS assay; format: functional, cell-based; conditions: MCF7, 72 h
Compound,IC50 (HeLa) [nM],IC50 (MCF7) [nM]
CO[C@H]1/C=C/C=C/C=C/C[C@H](OC(=O)[C@@H](C)NC(=O)C2CCCCC2)[C@H](C)[C@@H](O)/C(C)=C\CCc2cc(O)cc(c2)NC(=O)C1 [TRIENOMYCIN A],128,–
COc1cc2cc(c1)NC(=O)CCCCCCC=CC[C@H](OC(=O)[C@H](C)NC(=O)C1CCCCC1)CC/C(C)=C/CC2 (mixture of isomers),1700,1900
COc1cc2cc(c1)NC(=O)CCCCCCC=CC[C@H](OC(=O)[C@@H](C)NC(=O)C1CCCCC1)CC/C(C)=C\CC2 (mixture of isomers),> 100000,> 100000
COc1cc2cc(c1)NC(=O)CCCCCCC=CC[C@H](OC(=O)CNC(=O)C1CCCCC1)CC/C(C)=C/CC2 (mixture of isomers),13000,12000
COc1cc2cc(c1)NC(=O)CCCCCCC=CC[C@H](OC(=O)[C@@H](C)NC(=O)C1CCCC1)CC/C(C)=C/CC2 (mixture of isomers),1600,720
COc1cc2cc(c1)NC(=O)CCCCCCC=CC[C@H](OC(=O)[C@@H](Cc1ccccc1)NC(=O)C1CCCCC1)CC/C(C)=C/CC2 (mixture of isomers),4600,5100
COC1=C2C[C@@H](C)C[C@H](OC)[C@H](O)[C@@H](C)/C=C(\C)[C@H](OC(N)=O)[C@@H](OC)/C=C\C=C(/C)C(=O)NC(=CC1=O)C2=O [GELDANAMYCIN],> 5000,53
COc1cc2cc(c1)NC(=O)CCCCCCC=CC[C@H](OC(=O)[C@@H](C)NC(C)=O)CC/C(C)=C/CC2 (mixture of isomers),2500,1700
COc1cc2cc(c1)NC(=O)CCCCCCC=CC[C@H](OC(=O)[C@@H](C)NC(=O)C1CCCCC1)CC/C(C)=C/CC2 (mixture of isomers),470,530
COc1cc2cc(c1)NC(=O)CCCCCCC=CC[C@H](OC(=O)[C@@H](CC(C)C)NC(=O)C1CCCCC1)CC/C(C)=C/CC2 (mixture of isomers),> 100000,> 100000
COc1cc2cc(c1)NC(=O)CCCCCCC=CC[C@H](OC(=O)[C@H](NC(=O)C1CCCCC1)C(C)C)CC/C(C)=C/CC2 (mixture of isomers),9100,1000

# — ChEMBL document CHEMBL2016499, “Monoenomycin: A Simplified Trienomycin A Analogue that Manifests Anticancer Activity” (ACS Med Chem Lett, 2011)
